Results reported in patent publication US8952024B2, “Herbicidal pyrimidone derivatives” (E I du Pont de Nemours and Company, priority 2009, dated 2015).

What was measured:
Experiment in all cases: Test D pre-/postemergence plant response
Type in all cases: in vivo
[1] = tested on: barnyardgrass (Echinochloa crus-galli)
Outline: (§1)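 Both preemergence and postemergence treatments were made at the same time, with the compound in a non-phytotoxic, surfactant-containing solvent mixture. Plants grew in a greenhouse for 14–21 days before visual evaluation, scored from 0 (no effect) to 100 (complete control).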

[2] = tested on: bluegrass (annual bluegrass, Poa annua)
Outline: as §1

[3] = tested on: dallisgrass (Paspalum dilatatum)
Outline: as §1

[4] = tested on: dayflower (Virginia (VA) dayflower, Commelina virginica)
Outline: as §1

[5] = tested on: goosegrass (Eleusine indica)
Outline: as §1

[6] = tested on: green foxtail (Setaria viridis)
Outline: as §1

[7] = tested on: itchgrass (Rottboellia cochinchinensis)
Outline: as §1

[8] = tested on: johnsongrass (Sorghum halepense)
Outline: as §1

kochia (Kochia scoparia) = tested on: kochia (Kochia scoparia)
Outline: as §1

[9] = tested on: mallow (common mallow, Malva sylvestris)
Outline: as §1

[10] = tested on: prickly sida (Sida spinosa)
Outline: as §1

[11] = tested on: ragweed (common ragweed, Ambrosia elatior)
Outline: as §1

[12] = tested on: sandbur (southern sandbur, Cenchrus echinatus)
Outline: as §1

[13] = tested on: spanishneedles (Bidens bipinnata)
Outline: as §1

[14] = Postemergence, 16 g ai/ha, scale 0 to 100
[15] = Postemergence, 31 g ai/ha, scale 0 to 100 (0 no effect, 100 complete control)
[16] = Postemergence, 125 g ai/ha, scale 0 to 100 (0 no effect, 100 complete control)
[17] = Postemergence, 62 g ai/ha, scale 0 to 100 (0 no effect, 100 complete control)
[18] = Preemergence, 16 g ai/ha, scale 0 to 100, 0 no effect, 100 complete control
[19] = Preemergence, 31 g ai/ha, scale 0 to 100 (0 no effect, 100 complete control)
[20] = Preemergence, 62 g ai/ha, scale 0 to 100
[21] = Preemergence, 125 g ai/ha, scale 0 to 100
[22] = Postemergence, 31 g ai/ha, scale 0 to 100

Cc1c(F)cccc1-n1c(-c2ccccc2)ncc(C(=O)C2=C(O)CCCC2=O)c1=O [Compound 47, 3-(3-fluoro-2-methylphenyl)-5-[(2-hydroxy-6-oxo-1-cyclohexen-1-yl)carbonyl]-2-phenyl-4(3H)-pyrimidinone]
Plant response rating, Barnyardgrass [1, 14]: 70 | Plant response rating, Barnyardgrass [1, 15]: 70 | Plant response rating, Barnyardgrass [1, 16]: 70 | Plant response rating, Barnyardgrass [1, 17]: 70 | Plant response rating, Barnyardgrass [1, 18]: 0 | Plant response rating, Barnyardgrass [1, 19]: 0 | Plant response rating, Barnyardgrass [1, 20]: 5 | Plant response rating, Barnyardgrass [1, 21]: 5 | Plant response rating, Bluegrass [2, 14]: 0 | Plant response rating, Bluegrass [2, 15]: 0 | Plant response rating, Bluegrass [2, 16]: 0 | Plant response rating, Bluegrass [2, 17]: 0 | Plant response rating, Bluegrass [2, 18]: 0 | Plant response rating, Bluegrass [2, 19]: 0 | Plant response rating, Bluegrass [2, 20]: 0 | Plant response rating, Bluegrass [2, 21]: 35 | Plant response rating, Dallisgrass [3, 14]: 5 | Plant response rating, Dallisgrass [3, 22]: 10 | Plant response rating, Dallisgrass [3, 16]: 15 | Plant response rating, Dallisgrass [3, 17]: 15 | Plant response rating, Dallisgrass [3, 18]: 0 | Plant response rating, Dallisgrass [3, 19]: 25 | Plant response rating, Dallisgrass [3, 20]: 65 | Plant response rating, Dallisgrass [3, 21]: 75 | Plant response rating, Dayflower, VA [4, 14]: 10 | Plant response rating, Dayflower, VA [4, 22]: 15 | Plant response rating, Dayflower, VA [4, 16]: 30 | Plant response rating, Dayflower, VA [4, 17]: 20 | Plant response rating, Dayflower, VA [4, 18]: 35 | Plant response rating, Dayflower, VA [4, 19]: 35 | Plant response rating, Dayflower, VA [4, 20]: 50 | Plant response rating, Dayflower, VA [4, 21]: 50 | Plant response rating, Goosegrass [5, 14]: 40 | Plant response rating, Goosegrass [5, 22]: 65 | Plant response rating, Goosegrass [5, 16]: 65 | Plant response rating, Goosegrass [5, 17]: 65 | Plant response rating, Goosegrass [5, 18]: 0 | Plant response rating, Goosegrass [5, 19]: 0 | Plant response rating, Goosegrass [5, 20]: 5 | Plant response rating, Goosegrass [5, 21]: 75 | Plant response rating, Foxtail, Green [6, 14]: 5 | Plant response rating, Foxtail, Green [6, 22]: 35 | Plant response rating, Foxtail, Green [6, 16]: 95 | Plant response rating, Foxtail, Green [6, 17]: 50 | Plant response rating, Foxtail, Green [6, 18]: 0 | Plant response rating, Foxtail, Green [6, 19]: 0 | Plant response rating, Foxtail, Green [6, 20]: 0 | Plant response rating, Foxtail, Green [6, 21]: 0 | Plant response rating, Itchgrass [7, 14]: 0 | Plant response rating, Itchgrass [7, 22]: 5 | Plant response rating, Itchgrass [7, 16]: 10 | Plant response rating, Itchgrass [7, 17]: 5 | Plant response rating, Itchgrass [7, 18]: 0 | Plant response rating, Itchgrass [7, 19]: 0 | Plant response rating, Itchgrass [7, 20]: 0 | Plant response rating, Itchgrass [7, 21]: 0 | Plant response rating, Johnsongrass [8, 14]: 5 | Plant response rating, Johnsongrass [8, 22]: 15 | Plant response rating, Johnsongrass [8, 16]: 65 | Plant response rating, Johnsongrass [8, 17]: 35 | Plant response rating, Johnsongrass [8, 18]: 0 | Plant response rating, Johnsongrass [8, 19]: 0 | Plant response rating, Johnsongrass [8, 20]: 0 | Plant response rating, Johnsongrass [8, 21]: 75 | Plant response rating, Kochia (kochia (Kochia scoparia); [14]): 0 | Plant response rating, Kochia (kochia (Kochia scoparia); [22]): 10 | Plant response rating, Kochia (kochia (Kochia scoparia); [16]): 30 | Plant response rating, Kochia (kochia (Kochia scoparia); [17]): 20 | Plant response rating, Kochia (kochia (Kochia scoparia); [18]): 0 | Plant response rating, Kochia (kochia (Kochia scoparia); [19]): 50 | Plant response rating, Kochia (kochia (Kochia scoparia); [20]): 100 | Plant response rating, Kochia (kochia (Kochia scoparia); [21]): 100 | Plant response rating, Mallow [9, 14]: 35 | Plant response rating, Mallow [9, 22]: 50 | Plant response rating, Mallow [9, 16]: 65 | Plant response rating, Mallow [9, 17]: 65 | Plant response rating, Mallow [9, 18]: 0 | Plant response rating, Mallow [9, 19]: 0 | Plant response rating, Mallow [9, 20]: 65 | Plant response rating, Mallow [9, 21]: 98 | Plant response rating, Prickly Sida [10, 14]: 60 | Plant response rating, Prickly Sida [10, 22]: 70 | Plant response rating, Prickly Sida [10, 16]: 90 | Plant response rating, Prickly Sida [10, 17]: 80 | Plant response rating, Prickly Sida [10, 18]: 0 | Plant response rating, Prickly Sida [10, 19]: 50 | Plant response rating, Prickly Sida [10, 20]: 65 | Plant response rating, Prickly Sida [10, 21]: 100 | Plant response rating, Ragweed [11, 14]: 75 | Plant response rating, Ragweed [11, 22]: 75 | Plant response rating, Ragweed [11, 16]: 95 | Plant response rating, Ragweed [11, 17]: 80 | Plant response rating, Ragweed [11, 18]: 0 | Plant response rating, Ragweed [11, 19]: 50 | Plant response rating, Ragweed [11, 21]: 100 | Plant response rating, Sandbur [12, 14]: 5 | Plant response rating, Sandbur [12, 22]: 5 | Plant response rating, Sandbur [12, 16]: 35 | Plant response rating, Sandbur [12, 17]: 20 | Plant response rating, Sandbur [12, 18]: 0 | Plant response rating, Sandbur [12, 19]: 0 | Plant response rating, Sandbur [12, 21]: 90 | Plant response rating, Spanishneedles [13, 14]: 35 | Plant response rating, Spanishneedles [13, 22]: 40 | Plant response rating, Spanishneedles [13, 16]: 70 | Plant response rating, Spanishneedles [13, 17]: 65 | Plant response rating, Spanishneedles [13, 18]: 0 | Plant response rating, Spanishneedles [13, 19]: 95 | Plant response rating, Spanishneedles [13, 21]: 95 | Plant response rating, Spanishneedles ([13]; Preemergence, rate not given, scale 0 to 100, 0 no effect, 100 complete control): 95
